Laboratory results reported in patent US10941158B2, “Pyrazole ACC inhibitors and uses thereof” (Gilead Apollo, LLC, priority 2015, dated 2021).
Converted amounts (≈) assume the structure as drawn. Where two headings read alike, the source gives them in different places.

Tests used:
Septoria tritici (St) = assay: Growth inhibition assay of fungal pathogens; assay type: cell-based; details: for IC90: Zymoseptoria tritici, read-out: Concentration at 90% Inhibition St
In short: (§1)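 Compounds in DMSO tested at final 50, 10, 2 ppm or 2, 0.4, 0.08 ppm. Spores in 17% V8 medium, or 1.5 mm mycelial plugs in ¼ PDB for R. solani, incubated with compound. OD600 and visual ratings at 48 h versus 2% DMSO control gave percent growth inhibition.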

[1] = test system: Fusarium moniliforme (Fm); assay: Growth inhibition assay of fungal pathogens; assay type: cell-based; details: for IC90: Fusarium verticillioides, 48 h, read-out: Concentration at 90% Inhibition Fm
In short: as §1

[2] = test system: Phytophthora capsici (Pc); assay: Growth inhibition assay of fungal pathogens; assay type: cell-based; details: for IC90: Phytophthora capsici, read-out: Concentration at 90% Inhibition Pc
In short: as §1

Diplodia maydis (Dm) = assay: Growth inhibition assay of fungal pathogens; assay type: cell-based; details: Stenocarpella maydis, 48 h, read-out: Concentration at 90% Inhibition Dm
In short: as §1

[3] = test system: Fusarium virguliforme (Fv); assay: Growth inhibition assay of fungal pathogens; assay type: cell-based; details: 48 h
In short: as §1

Rhizoctonia solani (Rs) = assay: Growth inhibition assay of fungal pathogens; assay type: cell-based; details: 48 h, read-out: Concentration at 90% Inhibition Rs
In short: as §1

Botrtyis cinerea (Bc) = assay: Growth inhibition assay of fungal pathogens; assay type: cell-based; details: 48 h, read-out: Concentration at 90% Inhibition Bc
In short: as §1

[4] = test system: Collectotrichum graminicola (Cg); assay: Growth inhibition assay of fungal pathogens; assay type: cell-based; details: 48 h, read-out: Concentration at 90% Inhibition Cg
In short: as §1

[5] = test system: C. parapsilosis ATCC 22019; assay: Anti-Fungal (Candida) Activity Assay, broth microtiter MIC; assay type: cell-based; details: Lodderomyces parapsilosis, read-out: MIC C. parapsilosis ATCC 22019
In short: (§2)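 Following CLSI M27-A3 broth microdilution, direct colony suspensions in RPMI 1640+MOPS were challenged with compounds. MICs were read visually against the growth control after 48 h.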

C. krusei ATCC 6258 = assay: as above; assay type: cell-based; details: Pichia kudriavzevii, read-out: MIC C. krusei ATCC 6258
In short: as §2

C. albicans ATCC 90028 = assay: as above; assay type: cell-based; details: read-out: MIC C. albicans ATCC 90028
In short: as §2

human (hACC2) ACC2 = human (hACC2) ACC2 (Homo sapiens, UniProt O00763); assay: In vitro Acetyl-CoA Carboxylase (ACC) inhibition assay (ADP-Glo), hACC2; assay type: biochemical
Method: The detailed procedure is as follows. […] 10 μL ADP glo reagent was added. […] 20 μL kinase detection reagent was added.
“NA” stands for “not assayed.”

fungal (fACC2) ACC2 = fungal (fACC2) ACC2 (UniProt Q00955); details: read-out: fACC2 IC50; fungal ACC2, ADP-Glo
[6] = Table 4a, 48 hours, read-out: Concentration at 90% Inhibition Fv
[7] = Table 4b, 48 hours, read-out: Concentration at 90% Inhibition Fv
[8] = ATCC22019, 3 replicates, MIC recorded at 48 h
[9] = ATCC6258, 3 replicates, MIC recorded at 48 h
[10] = ATCC90028, 3 replicates, MIC recorded at 48 h
[11] = read-out: Concentration at 90% Inhibition Fv, Table 4b, 48 hours

human (hACC2) ACC2, sequence (O00763 whole entry): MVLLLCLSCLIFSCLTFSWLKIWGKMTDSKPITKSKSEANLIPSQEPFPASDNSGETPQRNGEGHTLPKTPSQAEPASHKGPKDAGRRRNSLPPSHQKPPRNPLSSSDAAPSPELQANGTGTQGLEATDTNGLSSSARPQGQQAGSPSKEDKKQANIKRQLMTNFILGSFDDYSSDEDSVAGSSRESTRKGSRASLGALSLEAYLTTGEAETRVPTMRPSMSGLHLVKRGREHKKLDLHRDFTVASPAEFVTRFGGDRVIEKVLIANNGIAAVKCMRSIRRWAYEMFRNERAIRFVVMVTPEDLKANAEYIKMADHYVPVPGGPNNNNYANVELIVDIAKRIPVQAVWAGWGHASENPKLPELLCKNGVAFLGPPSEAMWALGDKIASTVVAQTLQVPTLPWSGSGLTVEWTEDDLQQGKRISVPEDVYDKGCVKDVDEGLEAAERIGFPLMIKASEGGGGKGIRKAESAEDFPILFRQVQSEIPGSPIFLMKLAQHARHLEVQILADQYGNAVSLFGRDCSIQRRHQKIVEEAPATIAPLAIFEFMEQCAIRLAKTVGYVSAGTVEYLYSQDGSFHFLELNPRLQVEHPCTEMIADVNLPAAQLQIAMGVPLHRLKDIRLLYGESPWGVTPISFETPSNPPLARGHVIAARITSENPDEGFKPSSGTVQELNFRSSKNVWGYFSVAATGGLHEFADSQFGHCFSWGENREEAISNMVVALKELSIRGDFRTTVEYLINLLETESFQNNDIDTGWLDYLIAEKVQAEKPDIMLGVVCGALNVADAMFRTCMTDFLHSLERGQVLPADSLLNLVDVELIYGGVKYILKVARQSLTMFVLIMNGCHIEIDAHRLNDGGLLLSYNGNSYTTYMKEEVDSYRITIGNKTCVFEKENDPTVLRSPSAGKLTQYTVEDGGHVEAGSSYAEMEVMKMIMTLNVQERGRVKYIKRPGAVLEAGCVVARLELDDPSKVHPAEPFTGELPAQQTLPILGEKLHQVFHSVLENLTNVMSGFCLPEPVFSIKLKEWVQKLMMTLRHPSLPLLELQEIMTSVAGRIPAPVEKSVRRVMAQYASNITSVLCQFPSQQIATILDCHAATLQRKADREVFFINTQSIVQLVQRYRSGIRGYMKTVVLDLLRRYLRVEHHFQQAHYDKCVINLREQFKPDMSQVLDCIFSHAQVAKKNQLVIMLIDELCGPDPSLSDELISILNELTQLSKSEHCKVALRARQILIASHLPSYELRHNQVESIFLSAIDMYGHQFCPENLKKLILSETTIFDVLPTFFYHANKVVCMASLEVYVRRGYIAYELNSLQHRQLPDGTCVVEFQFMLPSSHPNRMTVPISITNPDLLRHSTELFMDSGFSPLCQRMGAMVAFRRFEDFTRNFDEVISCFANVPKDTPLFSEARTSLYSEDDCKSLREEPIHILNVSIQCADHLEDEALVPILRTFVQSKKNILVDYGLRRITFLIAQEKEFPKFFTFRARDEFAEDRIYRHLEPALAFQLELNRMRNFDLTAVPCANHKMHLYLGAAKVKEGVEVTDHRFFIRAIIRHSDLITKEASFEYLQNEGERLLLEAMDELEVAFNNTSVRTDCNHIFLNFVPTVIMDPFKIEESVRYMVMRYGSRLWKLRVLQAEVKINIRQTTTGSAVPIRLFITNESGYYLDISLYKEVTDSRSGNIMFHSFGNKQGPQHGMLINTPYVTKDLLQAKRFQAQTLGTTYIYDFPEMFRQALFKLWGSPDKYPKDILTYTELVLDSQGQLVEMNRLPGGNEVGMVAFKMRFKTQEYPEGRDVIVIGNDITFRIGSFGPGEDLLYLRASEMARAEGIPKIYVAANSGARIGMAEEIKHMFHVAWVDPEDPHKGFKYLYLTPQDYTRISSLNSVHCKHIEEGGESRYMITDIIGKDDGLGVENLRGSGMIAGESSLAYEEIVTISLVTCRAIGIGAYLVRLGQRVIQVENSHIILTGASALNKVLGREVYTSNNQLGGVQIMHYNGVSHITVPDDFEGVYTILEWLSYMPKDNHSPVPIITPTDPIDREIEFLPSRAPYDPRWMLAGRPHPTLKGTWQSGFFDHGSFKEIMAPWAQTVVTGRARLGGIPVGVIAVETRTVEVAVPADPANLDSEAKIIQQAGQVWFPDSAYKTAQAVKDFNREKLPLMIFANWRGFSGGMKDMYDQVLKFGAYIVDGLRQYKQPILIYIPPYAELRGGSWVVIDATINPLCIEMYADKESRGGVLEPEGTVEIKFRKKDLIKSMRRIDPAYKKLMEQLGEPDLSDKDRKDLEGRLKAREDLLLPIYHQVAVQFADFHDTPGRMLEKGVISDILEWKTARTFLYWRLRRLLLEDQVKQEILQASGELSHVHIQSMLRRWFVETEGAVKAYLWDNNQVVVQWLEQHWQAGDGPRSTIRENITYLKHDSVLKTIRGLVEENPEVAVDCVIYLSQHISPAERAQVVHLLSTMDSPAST
fungal (fACC2) ACC2, sequence (Q00955 whole entry): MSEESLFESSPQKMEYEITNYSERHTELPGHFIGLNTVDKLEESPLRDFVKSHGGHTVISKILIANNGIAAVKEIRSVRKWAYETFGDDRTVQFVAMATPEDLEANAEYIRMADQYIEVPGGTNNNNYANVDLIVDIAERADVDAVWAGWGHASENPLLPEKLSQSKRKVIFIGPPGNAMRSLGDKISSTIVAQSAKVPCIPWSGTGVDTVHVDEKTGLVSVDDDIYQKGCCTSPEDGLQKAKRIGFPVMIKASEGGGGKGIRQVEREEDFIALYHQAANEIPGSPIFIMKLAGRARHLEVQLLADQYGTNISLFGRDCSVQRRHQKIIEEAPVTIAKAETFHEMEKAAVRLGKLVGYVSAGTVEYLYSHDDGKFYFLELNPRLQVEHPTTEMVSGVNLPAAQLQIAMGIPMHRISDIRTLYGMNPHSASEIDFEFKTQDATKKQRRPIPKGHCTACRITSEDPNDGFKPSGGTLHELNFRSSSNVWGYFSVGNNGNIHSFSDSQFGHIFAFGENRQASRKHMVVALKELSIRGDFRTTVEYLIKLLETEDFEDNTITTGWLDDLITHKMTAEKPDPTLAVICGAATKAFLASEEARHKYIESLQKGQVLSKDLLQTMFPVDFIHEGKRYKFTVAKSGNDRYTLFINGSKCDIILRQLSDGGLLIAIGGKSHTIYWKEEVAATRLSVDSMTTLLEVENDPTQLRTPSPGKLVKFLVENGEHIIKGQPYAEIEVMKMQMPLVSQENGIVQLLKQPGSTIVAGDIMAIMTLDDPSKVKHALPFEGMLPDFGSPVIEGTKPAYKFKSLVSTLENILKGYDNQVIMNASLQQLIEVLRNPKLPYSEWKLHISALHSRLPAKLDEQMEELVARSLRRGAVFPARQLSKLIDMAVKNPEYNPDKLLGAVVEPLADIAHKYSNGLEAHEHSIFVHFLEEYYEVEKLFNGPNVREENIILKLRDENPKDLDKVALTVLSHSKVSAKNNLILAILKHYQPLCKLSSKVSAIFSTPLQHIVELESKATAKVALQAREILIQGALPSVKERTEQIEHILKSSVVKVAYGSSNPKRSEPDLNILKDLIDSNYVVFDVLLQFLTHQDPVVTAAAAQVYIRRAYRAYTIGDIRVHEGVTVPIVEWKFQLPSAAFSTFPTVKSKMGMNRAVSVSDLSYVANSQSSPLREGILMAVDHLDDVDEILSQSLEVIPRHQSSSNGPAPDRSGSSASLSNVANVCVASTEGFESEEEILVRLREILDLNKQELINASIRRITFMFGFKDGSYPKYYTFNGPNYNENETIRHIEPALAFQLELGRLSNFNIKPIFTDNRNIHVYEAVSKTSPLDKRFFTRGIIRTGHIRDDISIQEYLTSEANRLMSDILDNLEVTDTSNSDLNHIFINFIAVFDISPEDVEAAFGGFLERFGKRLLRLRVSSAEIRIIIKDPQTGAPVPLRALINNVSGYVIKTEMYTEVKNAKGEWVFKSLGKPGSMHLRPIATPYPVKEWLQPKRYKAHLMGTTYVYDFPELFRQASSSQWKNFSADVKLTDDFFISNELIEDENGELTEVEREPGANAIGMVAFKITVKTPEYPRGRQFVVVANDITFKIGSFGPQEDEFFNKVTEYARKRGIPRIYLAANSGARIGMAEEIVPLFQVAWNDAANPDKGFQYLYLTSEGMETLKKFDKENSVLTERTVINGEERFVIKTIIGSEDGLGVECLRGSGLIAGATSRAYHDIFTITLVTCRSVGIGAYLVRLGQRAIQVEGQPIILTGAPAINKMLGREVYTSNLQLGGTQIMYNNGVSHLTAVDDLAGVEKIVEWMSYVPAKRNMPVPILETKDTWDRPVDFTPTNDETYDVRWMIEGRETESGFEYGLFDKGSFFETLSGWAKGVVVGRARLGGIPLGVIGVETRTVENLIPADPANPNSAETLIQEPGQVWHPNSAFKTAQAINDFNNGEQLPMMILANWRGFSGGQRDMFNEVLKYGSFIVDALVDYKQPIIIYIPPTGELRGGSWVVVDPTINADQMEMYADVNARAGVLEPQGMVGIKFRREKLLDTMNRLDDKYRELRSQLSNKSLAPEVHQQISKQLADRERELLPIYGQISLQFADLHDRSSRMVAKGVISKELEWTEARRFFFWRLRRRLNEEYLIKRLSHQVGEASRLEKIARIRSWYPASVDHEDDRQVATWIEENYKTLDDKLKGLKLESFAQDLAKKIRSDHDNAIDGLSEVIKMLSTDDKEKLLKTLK

| Structure (SMILES) | Concentration at 90% Inhibition St (Septoria tritici (St); Table 4b, 48 hours) | IC90 (Septoria tritici (St); Table 4a, 48 hours) [µg/mL] | IC90 ([1]; Table 4a, 48 hours) [µg/mL] | IC90 ([1]; Table 4b, 48 hours) [µg/mL] | IC90 ([2]; Table 4a, 48 hours) [µg/mL] | Concentration at 90% Inhibition Pc ([2]; Table 4b, 48 hours) | IC90 (Diplodia maydis (Dm); Table 4a) [µg/mL] | IC90 (Diplodia maydis (Dm); Table 4b) [µg/mL] | IC90 [3, 6] [µg/mL] | IC90 [3, 7] [µg/mL] | IC90 (Rhizoctonia solani (Rs); Table 4a) [µg/mL] | IC90 (Rhizoctonia solani (Rs); Table 4b) [µg/mL] | IC90 (Botrtyis cinerea (Bc); Table 4a) [µg/mL] | IC90 (Botrtyis cinerea (Bc); Table 4b) [µg/mL] | IC90 ([4]; Table 4a) [µg/mL] | IC90 ([4]; Table 4b) [µg/mL] | MIC [5, 8] [µg/mL] | MIC (C. krusei ATCC 6258; [9]) [µg/mL] | MIC (C. albicans ATCC 90028; [10]) [µg/mL] | IC50 (human (hACC2) ACC2) [nM] | also measured |
| --- | --- | --- | --- | --- | --- | --- | --- | --- | --- | --- | --- | --- | --- | --- | --- | --- | --- | --- | --- | --- | --- |
| COc1ccccc1[C@H](Cn1c(=O)n(C(C)(C)C(=O)N2CCCC2)c(=O)c2c(C)c(-n3cccn3)sc21)OCC(C)C [Compound I-22, (R)-1-(2-isobutoxy-2-(2-methoxyphenyl)ethyl)-5-methyl-3-(2-methyl-1-oxo-1-(pyrrolidin-1-yl)propan-2-yl)-6-(1H-pyrazol-1-yl)thieno[2,3-d]pyrimidine-2,4(1H,3H)-dione] | D (“D” provided a compound concentration of >50 ppm at 90% inhibition of fungal pathogens) | > 50 | 2 (≈ 3.37 µM) | 0.4 (≈ 0.674 µM) | > 50 | D (“D” provided a compound concentration of >50 ppm at 90% inhibition of fungal pathogens) | 2 (≈ 3.37 µM) | 2 (≈ 3.37 µM) | > 50 | 10 (≈ 16.8 µM) | 2 (≈ 3.37 µM) | 2 (≈ 3.37 µM) | 2 (≈ 3.37 µM) | 2 (≈ 3.37 µM) | 2 (≈ 3.37 µM) | 2 (≈ 3.37 µM) | 1.1 to 2 (≈ 1.85 to 3.37 µM) | 0.25 to 1 (≈ 0.421 to 1.68 µM) | 0.25 to 1 (≈ 0.421 to 1.68 µM) | 3 to 10 |  |
| COc1ccccc1[C@H](Cn1c(=O)n(C(C)(C)C(=O)N2CCCCC2)c(=O)c2c(C)c(-n3cccn3)sc21)OCC(C)C [Compound I-23, (R)-1-(2-isobutoxy-2-(2-methoxyphenyl)ethyl)-5-methyl-3-(2-methyl-1-oxo-1-(piperidin-1-yl)propan-2-yl)-6-(1H-pyrazol-1-yl)thieno[2,3-d]pyrimidine-2,4(1H,3H)-dione] |  |  |  |  |  |  | 10 (≈ 16.5 µM) | 2 (≈ 3.29 µM) |  |  | > 50 | > 50 | 2 (≈ 3.29 µM) | 2 (≈ 3.29 µM) | > 50 | 10 (≈ 16.5 µM) |  |  |  | 10 to 40 | IC90 (Septoria tritici (St); 48 h, Table 4a): > 50 µg/mL; IC90 (Septoria tritici (St); 48 h, Table 4b): > 50 µg/mL; IC90 [1]: 0.4 µg/mL (≈ 0.658 µM); Concentration at 90% Inhibition Fm ([1]; Table 4b, 48 hours): A (“A” provided a compound concentration of 0.4 ppm at 90% inhibition of fungal pathogens); IC90 ([2]; 48 h, Table 4a): > 50 µg/mL; IC90 ([2]; 48 h, Table 4b): > 50 µg/mL; IC90 ([3]; read-out: Concentration at 90% Inhibition Fv, Table 4a, 48 hours): > 50 µg/mL; IC90 [3, 11]: > 50 µg/mL; MIC ([5]; ATCC22019, 48 h): 1.1 to 2 µg/mL (≈ 1.81 to 3.29 µM); MIC (C. krusei ATCC 6258; ATCC6258, 48 h): 0.25 to 1 µg/mL (≈ 0.411 to 1.65 µM); MIC (C. albicans ATCC 90028; ATCC90028, 48 h): 0.25 to 1 µg/mL (≈ 0.411 to 1.65 µM) |
| COc1ccc(F)cc1[C@H](Cn1c(=O)n(C(C)(C)C(N)=O)c(=O)c2c(C)c(-n3cccn3)sc21)OC1CCC(=O)CC1 [Compound I-25, (R)-2-(1-(2-(5-fluoro-2-methoxyphenyl)-2-((4-oxocyclo-hexyl)oxy)ethyl)-5-methyl-2,4-dioxo-6-(1H-pyrazol-1-yl)-1,4-dihydro-thieno[2,3-d]pyrimidin-3(2H)-yl)-2-methylpropanamide] | D (“D” provided a compound concentration of >50 ppm at 90% inhibition of fungal pathogens) | > 50 | 10 (≈ 16.7 µM) | 2 (≈ 3.35 µM) | > 50 | D (“D” provided a compound concentration of >50 ppm at 90% inhibition of fungal pathogens) | > 50 | > 50 | > 50 | > 50 | > 50 | > 50 | > 50 | 10 (≈ 16.7 µM) | > 50 | > 50 | 1.1 to 2 (≈ 1.84 to 3.35 µM) | 0.25 to 1 (≈ 0.418 to 1.67 µM) | 1.1 to 2 (≈ 1.84 to 3.35 µM) | 3 to 10 |  |
| COc1ccc(F)cc1[C@H](Cn1c(=O)n(C(C)(C)C(=O)N2CCCC2)c(=O)c2c(C)c(-n3cccn3)sc21)OC1CCC(=O)CC1 [Compound I-27, (R)-1-(2-(5-fluoro-2-methoxyphenyl)-2-((4-oxocyclohexyl)oxy)ethyl)-5-methyl-3-(2-methyl-1-oxo-1-(pyrrolidin-1-yl)propan-2-yl)-6-(1H-pyrazol-1-yl)thieno[2,3-d]pyrimidine-2,4(1H,3H)-dione] | D (“D” provided a compound concentration of >50 ppm at 90% inhibition of fungal pathogens) | > 50 | 0.4 (≈ 0.614 µM) | 0.4 (≈ 0.614 µM) | > 50 | D (“D” provided a compound concentration of >50 ppm at 90% inhibition of fungal pathogens) | > 50 | 10 (≈ 15.3 µM) | 10 (≈ 15.3 µM) | 2 (≈ 3.07 µM) | 2 (≈ 3.07 µM) | 2 (≈ 3.07 µM) | 2 (≈ 3.07 µM) | 2 (≈ 3.07 µM) | 10 (≈ 15.3 µM) | 2 (≈ 3.07 µM) | 1.1 to 2 (≈ 1.69 to 3.07 µM) | 1.1 to 2 (≈ 1.69 to 3.07 µM) | 1.1 to 2 (≈ 1.69 to 3.07 µM) | 10 to 40 |  |
| COc1ccc(F)cc1[C@H](Cn1c(=O)n(C(C)(C)C(=O)NC(C)C)c(=O)c2c(C)c(-n3cccn3)sc21)OCCO [Compound I-35, (R)-2-(1-(2-(5-fluoro-2-methoxyphenyl)-2-(2-hydroxy-ethoxy)ethyl)-5-methyl-2,4-dioxo-6-(1H-pyrazol-1-yl)-1,4-dihydrothieno[2,3-d]pyrimidin-3(2H)-yl)-N-isopropyl-2-methylpropanamide] | D (“D” provided a compound concentration of >50 ppm at 90% inhibition of fungal pathogens) | > 50 | 0.4 (≈ 0.681 µM) | 0.4 (≈ 0.681 µM) | > 50 | D (“D” provided a compound concentration of >50 ppm at 90% inhibition of fungal pathogens) | > 50 | 10 (≈ 17 µM) | 2 (≈ 3.4 µM) | 2 (≈ 3.4 µM) | 2 (≈ 3.4 µM) | 2 (≈ 3.4 µM) | 2 (≈ 3.4 µM) | 2 (≈ 3.4 µM) | 2 (≈ 3.4 µM) | 2 (≈ 3.4 µM) |  |  |  | 10 to 40 | IC50 (fungal (fACC2) ACC2): 0.6 to 3 nM |
| COCCO[C@@H](Cn1c(=O)n(C(C)(C)C(=O)N2CCCC2)c(=O)c2c(C)c(-n3cccn3)sc21)c1cc(F)ccc1OC [Compound I-44, (R)-1-(2-(5-fluoro-2-methoxyphenyl)-2-(2-methoxy-ethoxy)ethyl)-5-methyl-3-(2-methyl-1-oxo-1-(pyrrolidin-1-yl)propan-2-yl)-6-(1H-pyrazol-1-yl)thieno[2,3-d]pyrimidine-2,4(1H,3H)-dione] |  |  |  | 10 (≈ 16.3 µM) |  |  |  | > 50 |  | 10 (≈ 16.3 µM) |  | > 50 |  | > 50 |  | > 50 |  |  |  | > 40 | IC90 (Septoria tritici (St); Table 4b, 48 hours): > 50 µg/mL; IC90 ([2]; Table 4b, 48 hours): > 50 µg/mL; IC50 (fungal (fACC2) ACC2): 3 to 10 nM |
| COc1ccc(F)cc1[C@@H](O)Cn1c(=O)n(C(C)(C)C(=O)NC(C)C)c(=O)c2c(C)c(-n3cccn3)sc21 [Compound I-86, (R)-2-(1-(2-(5-fluoro-2-methoxyphenyl)-2-hydroxyethyl)-5-methyl-2,4-dioxo-6-(1H-pyrazol-1-yl)-1,4-dihydrothieno[2,3-d]pyrimidin-3(2H)-yl)-N-isopropyl-2-methylpropanamide] |  |  |  |  |  |  |  | 10 (≈ 18.4 µM) |  |  |  | 0.4 (≈ 0.736 µM) |  | 2 (≈ 3.68 µM) |  | 2 (≈ 3.68 µM) |  |  |  | 3 to 10 | IC90 (Septoria tritici (St); 48 h, Table 4b): > 50 µg/mL; IC90 [1]: 0.4 µg/mL (≈ 0.736 µM); IC90 ([2]; 48 h, Table 4b): > 50 µg/mL; IC90 [3, 11]: 0.4 µg/mL (≈ 0.736 µM); MIC ([5]; ATCC22019, 48 h): 0.25 to 1 µg/mL (≈ 0.46 to 1.84 µM); MIC (C. krusei ATCC 6258; ATCC6258, 48 h): 1.1 to 2 µg/mL (≈ 2.02 to 3.68 µM); MIC (C. albicans ATCC 90028; ATCC90028, 48 h): 1.1 to 2 µg/mL (≈ 2.02 to 3.68 µM) |
